Results taken from paper PMC12837263, “β,β-Dimethylacrylalkannin Restores Colistin Efficacy Against mcr- and TCS-Mediated Resistant Gram-Negative Bacteria via Membrane Disturbance” (Antibiotics, 2025).

Experiments:
Type in all cases: cell-based
[1] = test system: K. pneumoniae 492(mcr-1、blaNDM); assay: Checkerboard assay (MIC, FICI)
Protocol: (§1) The FICI of β,β-Dim–colistin combination was determined by a checkerboard assay. Briefly, two-fold serial dilutions of β,β-Dim and colistin were prepared in a 96-well plate. After incubation at 37 °C for 18 h with bacterial suspension (10^6 CFU/mL), OD600 values were measured. FICI = (MICβ,β-Dim in combination/MICβ,β-Dim) + (MICcolistin in combination/MICcolistin). The synergistic effect of β,β-Dim with other antibiotics was measured in the same way. Synergy was considered to be an FICI ≤ 0.5.

[2] = test system: E. coli BW25113-pmrBR93P(pmrB); assay: Checkerboard assay (MIC, FICI)
Protocol: as §1

P. aeruginosa 9(mcr-1) = assay: Checkerboard assay (MIC, FICI)
Protocol: as §1

K. pneumoniae 20(mcr-1) = assay: Checkerboard assay (MIC, FICI)
Protocol: as §1

[3] = test system: K. pneumoniae 29(mcr-8、pmrB、blaNDM); assay: Checkerboard assay (MIC, FICI)
Protocol: as §1

[4] = test system: E. coli BW25113-184-mcr-1; assay: Checkerboard assay (MIC, FICI)
Protocol: as §1

[5] = test system: K. pneumoniae 251(mgrB、phoP、pmrA、blaKPC); assay: Checkerboard assay (MIC, FICI)
Protocol: as §1

[6] = test system: S. Typhimurium ATCC 14028; assay: Checkerboard assay (MIC, FICI)
Protocol: as §1

[7] = test system: K. pneumoniae 667(phoP、pmrA、blaKPC); assay: Checkerboard assay (MIC, FICI)
Protocol: as §1

[8] = test system: K. pneumoniae 57(mcr-9、blaNDM); assay: Checkerboard assay (MIC, FICI)
Protocol: as §1

E. coli ATCC 25922 = assay: Checkerboard assay (MIC, FICI)
Protocol: as §1

[9] = test system: S. Typhimurium 9891(mcr-1); assay: Checkerboard assay (MIC, FICI)
Protocol: as §1

E. coli 13f4(mcr-1) = assay: Checkerboard assay (MIC, FICI)
Protocol: as §1

E. coli pHSG299-mcr-3 = assay: Checkerboard assay (MIC, FICI)
Protocol: as §1

K. pneumoniae ATCC 13883 = assay: Checkerboard assay (MIC, FICI)
Protocol: as §1

P. aeruginosa PAO1 = assay: Checkerboard assay (MIC, FICI)
Protocol: as §1

E. coli ZJ71(mcr-1) = assay: Checkerboard assay (MIC, FICI)
Protocol: as §1

[10] = test system: K. pneumoniae 650(mgrB、phoP、pmrA、blaKPC); assay: Checkerboard assay (MIC, FICI)
Protocol: as §1

A. baumannii ATCC 19606 = assay: Checkerboard assay (MIC, FICI)
Protocol: as §1

[11] = test system: E. coli BW25113-pmrAD82N(pmrA); assay: Checkerboard assay (MIC, FICI)
Protocol: as §1

K. pneumoniae 109(mcr-8) = assay: Checkerboard assay (MIC, FICI)
Protocol: as §1

K. pneumoniae 126(mcr-8) = assay: Checkerboard assay (MIC, FICI)
Protocol: as §1

E. coli BW25113-184 = assay: Checkerboard assay (MIC, FICI)
Protocol: as §1

[12] = test system: K. pneumoniae 197(mcr-1、blaNDM); assay: Checkerboard assay (MIC, FICI)
Protocol: as §1

[13] = test system: K. pneumoniae, E. coli, Salmonella, P. aeruginosa, and A. baumannii; assay: Checkerboard assay, panel of tested strains (summary statements)
Protocol: as §1

K. pneumoniae 667 = assay: Bacterial growth curves; details: β,β-Dim 4 µg/mL, colistin 0.5 µg/mL, alone or combined; 24 h
Protocol: Overnight cultures of K. pneumoniae 667 and E. coli 13f4 were diluted to 10^6 CFU/mL; then, β,β-Dim (4 μg/mL), colistin (0.5 or 2 μg/mL), and their combination were co-incubated with bacterial suspensions in a 96-well plate. OD600 values were monitored hourly over a 24 h period.

[14] = Klebsiella pneumoniae, read-out: MIC of β,β-Dim
[15] = Escherichia coli, BW25113, read-out: MIC of β,β-Dim
[16] = Escherichia coli, read-out: MIC of β,β-Dim

Compound: CC(C)=CC[C@H](OC(=O)C=C(C)C)C1=CC(=O)c2c(O)ccc(O)c2C1=O [β,β-Dim, β,β-dimethylacrylalkannin]
- MIC of β,β-Dim [Combination] ([1]; 492, with colistin): 2 µg/mL
- MIC [1, 14]: > 128 µg/mL
- MIC of β,β-Dim [Combination] ([2]; BW25113-pmrBR93P, with colistin): 8 µg/mL
- MIC [2, 15]: > 128 µg/mL
- MIC of β,β-Dim [Combination] (P. aeruginosa 9(mcr-1); P. aeruginosa 9, with colistin): 16 µg/mL
- MIC (P. aeruginosa 9(mcr-1); Pseudomonas aeruginosa, read-out: MIC of β,β-Dim): > 128 µg/mL
- MIC of β,β-Dim [Combination] (K. pneumoniae 20(mcr-1); 20(mcr-1), with colistin): 4 µg/mL
- MIC (K. pneumoniae 20(mcr-1); [14]): > 128 µg/mL
- MIC of β,β-Dim [Combination] ([3]; 29, with colistin): 4 µg/mL
- MIC [3, 14]: > 128 µg/mL
- MIC of β,β-Dim [Combination] ([4]; BW25113-184-mcr-1, with colistin): 4 µg/mL
- MIC [4, 15]: > 128 µg/mL
- MIC of β,β-Dim [Combination] ([5]; 251, with colistin): 4 µg/mL
- MIC [5, 14]: > 128 µg/mL
- MIC of β,β-Dim [Combination] ([6]; 14028, with colistin): 0.5 µg/mL
- MIC ([6]; Salmonella enterica, read-out: MIC of β,β-Dim): > 128 µg/mL
- MIC of β,β-Dim [Combination] ([7]; 667, with colistin): 2 µg/mL
- MIC [7, 14]: > 128 µg/mL
- MIC of β,β-Dim [Combination] ([8]; 57, with colistin): 8 µg/mL
- MIC [8, 14]: > 128 µg/mL
- MIC of β,β-Dim [Combination] (E. coli ATCC 25922; 25922, with colistin): 2 µg/mL
- MIC (E. coli ATCC 25922; Escherichia coli, ATCC25922, read-out: MIC of β,β-Dim): > 128 µg/mL
- MIC of β,β-Dim [Combination] ([9]; 9891, with colistin): 8 µg/mL
- MIC ([9]; Salmonella enterica, TYPHIMURIUM, read-out: MIC of β,β-Dim): > 128 µg/mL
- MIC of β,β-Dim [Combination] (E. coli 13f4(mcr-1); 13f4, with colistin): 4 µg/mL
- MIC (E. coli 13f4(mcr-1); [16]): > 128 µg/mL
- MIC (E. coli pHSG299-mcr-3; Escherichia coli, PHSG299MCR3, read-out: MIC of β,β-Dim): > 128 µg/mL
- MIC of β,β-Dim [Combination] (E. coli pHSG299-mcr-3; pHSG299-mcr-3, with colistin): 8 µg/mL
- MIC of β,β-Dim [Combination] (K. pneumoniae ATCC 13883; 13883, with colistin): 2 µg/mL
- MIC (K. pneumoniae ATCC 13883; Klebsiella pneumoniae, ATCC13883, read-out: MIC of β,β-Dim): > 128 µg/mL
- MIC of β,β-Dim [Combination] (P. aeruginosa PAO1; PAO1, with colistin): 2 µg/mL
- MIC (P. aeruginosa PAO1; Pseudomonas aeruginosa, PAO1, read-out: MIC of β,β-Dim): > 128 µg/mL
- MIC (E. coli ZJ71(mcr-1); [16]): > 128 µg/mL
- MIC of β,β-Dim [Combination] (E. coli ZJ71(mcr-1); ZJ71, with colistin): 4 µg/mL
- MIC of β,β-Dim [Combination] ([10]; 650, with colistin): 8 µg/mL
- MIC [10, 14]: > 128 µg/mL
- MIC of β,β-Dim [Combination] (A. baumannii ATCC 19606; 19606, with colistin): 4 µg/mL
- MIC (A. baumannii ATCC 19606; Acinetobacter baumannii, ATCC19606, read-out: MIC of β,β-Dim): > 128 µg/mL
- MIC of β,β-Dim [Combination] ([11]; BW25113-pmrAD82N, with colistin): 8 µg/mL
- MIC [11, 15]: > 128 µg/mL
- MIC of β,β-Dim [Combination] (K. pneumoniae 109(mcr-8); 109, with colistin): 4 µg/mL
- MIC (K. pneumoniae 109(mcr-8); [14]): > 128 µg/mL
- MIC of β,β-Dim [Combination] (K. pneumoniae 126(mcr-8); 126, with colistin): 8 µg/mL
- MIC (K. pneumoniae 126(mcr-8); [14]): > 128 µg/mL
- MIC of β,β-Dim [Combination] (E. coli BW25113-184; BW25113-184, with colistin): 2 µg/mL
- MIC (E. coli BW25113-184; [15]): > 128 µg/mL
- MIC of β,β-Dim [Combination] ([12]; 197, with colistin): 8 µg/mL
- MIC [12, 14]: > 128 µg/mL
- antibacterial activity against Gram-negative bacteria ([13]; β,β-Dim alone): did not exhibit antibacterial activity
- FICI ([13]; β,β-Dim with colistin, summary over tested strains): < 0.5
- bacterial growth (growth curves) (K. pneumoniae 667): neither β,β-Dim (4 µg/mL) nor colistin (0.5 µg/mL) alone inhibited the growth
